We go through two molecules from BindingDB's records for patent US11897867 (Bayer Aktiengesellschaft, 2024).

Structures are written as SMILES.

The target of assay [1] is cGMP-inhibited 3',5'-cyclic phosphodiesterase 3A (Homo sapiens, UniProt Q14432). Kind of assay: PDE3A Enzyme Inhibition. The protocol: (§1) The commercially available 3H-cAMP Scintillation Proximity Assay (SPA, Perkin Elmer) system was used for enzyme inhibition studies. For the determination of the in vitro effect of test substances on the PDE3A reactions 2 μl of the respective test compound solution in DMSO (serial dilutions) were is placed in wells of microtiter plates (Isoplate-96/200W; Perkin Elmer). 50 μl of a dilution of PDE3A cell extract from Sf9 cells overexpressing human full length PDE3A (SB Drug Discovery, UK) in buffer A (50 mM Tris/HCl pH 7.5, 8.3 mM MgCl2, 1.7 mM EDTA, 0.2% BSA) was added. The dilution of the PDE3A cell extract was chosen such that the reaction kinetics was linear and less than 70% of the substrate was consumed (typical dilution 1:5000). The reaction was started by addition of 50 μl (0.025 μCi) of 1:2000 in buffer A w/o BSA diluted substrate [8-3H] adenosine 3′,5′-cyclic phosphate (1 μCi/μl; Perkin Elmer). After incubation at room temperature for 60 min, the reaction was stopped by addition of 25 μl of a suspension containing 18 mg/ml yttrium scintillation proximity beads (Perkin Elmer) in water. The microtiter plates were sealed and measured in a Microbeta scintillation counter (PerkinElmer Wallac). IC50 values were determined from sigmoidal curves by plotting percentage PDE3A activity vs log compound concentration.

For assay [2], the target named is cGMP-inhibited 3',5'-cyclic phosphodiesterase 3B (Homo sapiens, UniProt Q13370). Description: PDE3B Enzyme Inhibition. The protocol: as §1, with “PDE3B” for “PDE3A”, “were” for “were is”, “1:6000).” for “1:5000).”
Chain of cGMP-inhibited 3',5'-cyclic phosphodiesterase 3B (Q13370 whole entry): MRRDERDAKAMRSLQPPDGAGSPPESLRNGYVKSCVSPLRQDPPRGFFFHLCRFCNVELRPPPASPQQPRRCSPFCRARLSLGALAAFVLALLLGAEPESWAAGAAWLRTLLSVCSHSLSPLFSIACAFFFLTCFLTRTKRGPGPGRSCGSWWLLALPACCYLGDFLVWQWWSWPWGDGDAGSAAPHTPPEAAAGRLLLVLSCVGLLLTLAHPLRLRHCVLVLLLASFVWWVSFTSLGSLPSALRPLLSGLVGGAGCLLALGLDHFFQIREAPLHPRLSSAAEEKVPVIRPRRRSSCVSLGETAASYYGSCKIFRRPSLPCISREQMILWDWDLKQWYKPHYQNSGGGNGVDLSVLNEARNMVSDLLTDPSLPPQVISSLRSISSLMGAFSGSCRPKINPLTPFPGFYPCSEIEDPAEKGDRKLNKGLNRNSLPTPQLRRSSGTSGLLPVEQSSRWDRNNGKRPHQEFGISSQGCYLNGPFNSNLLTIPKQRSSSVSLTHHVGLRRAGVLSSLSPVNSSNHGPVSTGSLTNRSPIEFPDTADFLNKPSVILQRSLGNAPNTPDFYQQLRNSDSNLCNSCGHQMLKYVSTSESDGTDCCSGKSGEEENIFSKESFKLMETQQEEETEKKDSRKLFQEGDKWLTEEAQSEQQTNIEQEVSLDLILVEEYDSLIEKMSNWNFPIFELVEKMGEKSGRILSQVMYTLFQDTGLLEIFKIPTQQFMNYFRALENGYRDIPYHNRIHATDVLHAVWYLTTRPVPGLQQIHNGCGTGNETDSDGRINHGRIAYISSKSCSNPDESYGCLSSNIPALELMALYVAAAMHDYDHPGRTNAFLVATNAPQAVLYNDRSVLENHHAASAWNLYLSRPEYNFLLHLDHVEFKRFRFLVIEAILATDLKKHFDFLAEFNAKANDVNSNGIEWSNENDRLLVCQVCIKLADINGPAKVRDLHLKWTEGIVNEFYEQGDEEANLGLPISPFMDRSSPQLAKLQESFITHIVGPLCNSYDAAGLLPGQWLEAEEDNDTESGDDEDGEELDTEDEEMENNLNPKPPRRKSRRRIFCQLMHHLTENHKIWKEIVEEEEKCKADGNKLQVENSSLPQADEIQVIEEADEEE

Chain of cGMP-inhibited 3',5'-cyclic phosphodiesterase 3A (Q14432 whole entry): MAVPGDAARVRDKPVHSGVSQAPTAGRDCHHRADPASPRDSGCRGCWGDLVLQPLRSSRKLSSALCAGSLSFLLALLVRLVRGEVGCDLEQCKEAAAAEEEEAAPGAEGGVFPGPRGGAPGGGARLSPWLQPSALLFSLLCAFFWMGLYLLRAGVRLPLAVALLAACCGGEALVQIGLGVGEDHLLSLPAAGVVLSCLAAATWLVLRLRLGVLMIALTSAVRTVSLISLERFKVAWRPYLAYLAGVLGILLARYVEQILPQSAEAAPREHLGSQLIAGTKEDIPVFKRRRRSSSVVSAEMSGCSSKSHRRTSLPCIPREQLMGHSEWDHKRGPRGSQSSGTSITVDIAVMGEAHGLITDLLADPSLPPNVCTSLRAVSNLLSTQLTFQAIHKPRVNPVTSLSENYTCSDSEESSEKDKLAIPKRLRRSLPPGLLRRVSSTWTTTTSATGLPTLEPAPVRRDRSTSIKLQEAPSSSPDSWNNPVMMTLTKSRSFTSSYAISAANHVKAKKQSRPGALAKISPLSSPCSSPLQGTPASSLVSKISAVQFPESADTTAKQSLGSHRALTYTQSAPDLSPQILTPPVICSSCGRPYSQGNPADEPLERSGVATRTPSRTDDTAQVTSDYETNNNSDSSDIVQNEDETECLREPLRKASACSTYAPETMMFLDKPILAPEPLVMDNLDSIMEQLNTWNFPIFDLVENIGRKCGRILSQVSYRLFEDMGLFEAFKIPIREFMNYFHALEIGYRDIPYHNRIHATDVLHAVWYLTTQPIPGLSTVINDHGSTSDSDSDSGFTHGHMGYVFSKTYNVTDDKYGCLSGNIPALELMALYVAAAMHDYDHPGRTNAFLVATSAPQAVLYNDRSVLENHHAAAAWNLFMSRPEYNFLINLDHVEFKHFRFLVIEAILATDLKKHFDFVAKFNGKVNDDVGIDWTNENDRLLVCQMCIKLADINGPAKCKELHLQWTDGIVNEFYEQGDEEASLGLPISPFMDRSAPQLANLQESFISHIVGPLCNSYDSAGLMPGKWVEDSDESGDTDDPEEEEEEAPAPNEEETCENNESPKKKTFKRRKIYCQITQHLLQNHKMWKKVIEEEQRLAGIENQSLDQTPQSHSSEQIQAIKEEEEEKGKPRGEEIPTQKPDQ

With `O=C1CCC(c2ccc(-c3ccccc3C(F)(F)F)c(F)c2)=NN1` [US11897867, Example 61], the half-maximal inhibitory concentration (IC50) in assay [1] was determined as 440 nM; in assay [2] it was 110 nM.

With `O=C1CCC(c2ccc(N3CCOCC3)cc2)=NN1` [US11897867, Example 123], the 50% inhibitory concentration (IC50) in assay [1] is above 1000 nM.
